Data: US6770778B2, “N-(4-substituted phenyl)-anthranilic acid hydroxamate esters” (Pfizer Inc, priority 2002, dated 2004)

How the values were obtained:
MEK = assay: Cellular assay for measuring MEK inhibition (inhibition of ERK phosphorylation in C26 cells); assay type: cell-based; details: murine colon 26 (C26) carcinoma cells, 1 hour at 37° C., Western blot of dually phosphorylated ERK1 and ERK2
Description: The evaluation of the compounds as MEK inhibitors is performed in an assay that measures their ability to inhibit phosphorylation of MAP kinase (ERK) in murine colon 26 (C26) carcinoma cells. Since ERK1 and ERK2 represent the only known substrates for MEK, measurement of inhibition of ERK phosphorylation in cells provides direct readout of cellular MEK inhibition by the compounds of the invention. Briefly, the assay involves treating exponentially growing C26 cells with varying concentrations of the test compound (or vehicle control) for 1 hour at 37° C. Cells are then rinsed free of compound/vehicle and lysed in a solution containing 70 mM NaCl, 50 mM glycerol phosphate, 10 mM HEPES, pH 7.4, 1% Triton X-100, 1 mM Na3VO4, 100 μM PMSF, 10 μM leupeptin, and 10 μM pepstatin. Supernatants are then subjected to gel electrophoresis and Western blotting using a primary antibody recognizing dually phosphorylated ERK1 and ERK2. To evaluate total MAPK levels, blots were subsequently ‘stripped’ and re-probed with a 1:1 mixture of polyclonal antibodies recognizing unphosphorylated ERK1 and ERK2.
The inhibition data generated by the above protocol is disclosed in Table 1. If several concentrations of inhibitor were tested, IC50 values (the concentration which gives 50% inhibition) were determined graphically from the dose response curve for % inhibition. Otherwise, percent inhibitions at measured concentrations are reported.

melting point | IC50 (MEK) | Compound
161.5 to 162.5 °C |  | CC(=O)c1ccc(Nc2c(C(=O)NOCCO)ccc(F)c2F)c(Cl)c1 [Example 6, 2-(4-Acetyl-2-chloro-phenylamino)-3,4-difluoro-N-(2-hydroxy-ethoxy)-benzamide]
162 to 165 °C | 27 nM | COC(=O)c1ccc(Nc2c(C(=O)NOCCO)ccc(F)c2F)c(F)c1 [Example 3, Methyl 4-(2,3-difluoro-6-{[(2-hydroxyethoxy)amino]carbonyl}anilino)-3-fluorobenzoate]
180 to 183 °C | 73 nM | O=C(O)c1ccc(Nc2c(C(=O)NOCCO)ccc(F)c2F)cc1 [Example 2, 4-[[2,3-Difluoro-6-[[(2-hydroxyethoxy)amino]carbonyl]phenyl]amino]-benzoic acid]
121 to 123 °C | > 1000 nM | COCC#Cc1ccc(Nc2c(C(=O)NOCCO)ccc(F)c2F)c(F)c1 [Example 5, 3,4-Difluoro-2-[[2-fluoro-4-(3-methoxy-1-propynyl)phenyl]amino]-N-(2-hydroxyethoxy)benzamide]
197 to 200 °C | > 10000 nM | CNC(=O)c1ccc(Nc2c(C(=O)NOCCO)ccc(F)c2F)c(F)c1 [Example 7, 2-{2-fluoro-4-[(methylamino)carbonyl]anilino}-3,4-difluoro-N-(2-hydroxyethoxy)benzamide]
196 to 200 °C | > 1000 nM | O=C(O)c1ccc(Nc2c(C(=O)NOCCO)ccc(F)c2F)c(F)c1 [Example 4, 4-(2,3-Difluoro-6-{[(2-hydroxyethoxy)amino]carbonyl}anilino)-3-fluorobenzoic acid]
158 to 160 °C | > 1000 nM | COC(=O)c1ccc(Nc2c(C(=O)NOCCO)ccc(F)c2F)cc1 [Example 1, Methyl 4-[[2.3-difluoro-6-[[(2-hydroxyethoxy)amino]carbonyl]phenyl]-amino]benzoate]
